The source made the active and inactive calls. No stated cut-off is given here; in the data, actives have a measured IC50 and inactives only a lower limit.

In the assay the target is Envelope glycoprotein gp160 (Human immunodeficiency virus 1, UniProt Q6QLK5). Nature of the assay: inhibitors of HIV fusion peptide binding, primary screen, biochemical, uHTS, fluorescence dequenching (AID 1986).
Envelope glycoprotein gp160, sequence (Q6QLK5 whole entry, the tested form may be a part): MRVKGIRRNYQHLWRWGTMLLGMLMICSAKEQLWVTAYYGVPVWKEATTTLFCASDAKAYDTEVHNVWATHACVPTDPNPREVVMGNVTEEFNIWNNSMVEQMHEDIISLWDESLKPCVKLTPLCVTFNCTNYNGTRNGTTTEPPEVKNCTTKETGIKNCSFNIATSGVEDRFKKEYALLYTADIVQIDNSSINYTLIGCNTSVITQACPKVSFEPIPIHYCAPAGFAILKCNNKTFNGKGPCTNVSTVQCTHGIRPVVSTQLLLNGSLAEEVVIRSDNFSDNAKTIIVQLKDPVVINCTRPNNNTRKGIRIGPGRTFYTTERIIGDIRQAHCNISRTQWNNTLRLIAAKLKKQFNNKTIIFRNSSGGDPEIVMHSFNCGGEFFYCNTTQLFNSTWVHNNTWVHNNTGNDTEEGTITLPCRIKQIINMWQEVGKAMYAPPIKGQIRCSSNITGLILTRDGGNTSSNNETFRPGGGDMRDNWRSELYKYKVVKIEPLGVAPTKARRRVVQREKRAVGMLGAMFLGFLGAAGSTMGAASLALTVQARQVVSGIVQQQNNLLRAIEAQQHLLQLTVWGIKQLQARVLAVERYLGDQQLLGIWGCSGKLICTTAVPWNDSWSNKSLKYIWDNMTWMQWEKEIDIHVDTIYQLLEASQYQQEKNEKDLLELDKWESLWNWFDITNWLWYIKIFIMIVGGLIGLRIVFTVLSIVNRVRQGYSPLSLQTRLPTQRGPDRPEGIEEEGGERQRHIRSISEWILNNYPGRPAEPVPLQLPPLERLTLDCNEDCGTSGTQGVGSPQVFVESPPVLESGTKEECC
As a reminder, the IC50 is the concentration at which inhibition is half-maximal. In the case of `CCOc1cc(/C=C2/C(=N)N3C(=NC2=O)SN=C3S(=O)(=O)C(C)C)ccc1OC(=O)c1ccco1`, the IC50 was 14.8 µM (active).
In the case of `CCc1nnc(NS(=O)(=O)c2ccc(NC(=O)/C=C/c3ccccc3Cl)cc2)s1`, the IC50 is 23.7 µM (active).
Regarding `COc1ccc(C(=O)COC(=O)c2ccccc2NS(=O)(=O)c2ccc(O)c([N+](=O)[O-])c2)cc1`, the IC50 was 16.4 µM (active).
Take `N=C1/C(=C\c2ccc(-c3cccc(C(=O)O)c3)o2)C(=O)N=C2SC=C(c3ccccc3)N12`: the IC50 is 6.64 µM (active).
`Cc1noc(NS(=O)(=O)c2ccc(NC(=O)Nc3ccc(Cl)c(Cl)c3)cc2)c1C`: the IC50 was 19.8 µM (active).
Consider `CC(C)S(=O)(=O)C1=NSC2=NC(=O)/C(=C\c3ccc(OC(=O)c4ccco4)cc3)C(=N)N21`, for which the concentration for half-maximal inhibition (IC50) was 26.7 µM (active).
Regarding `O=C(O)c1cc(NC(=O)c2ccc(Br)cc2)cc(NC(=O)c2ccc(Br)cc2)c1`, the 50% inhibitory concentration (IC50) was 29.4 µM (active).
On to `Brc1ccc(N/N=C(/N=Nc2nn[nH]n2)c2ccccc2)cc1`, for which the IC50 is 29.5 µM (active).

Values taken from ChEMBL document CHEMBL1201862, “PubChem BioAssay data set” (2004).
